Reference: patent publication US20130011361A1, “PYRAZOLE DERIVATIVES WHICH MODULATE STEAROYL-COA DESATURASE” (XENON PHARMACEUTICALS INC., priority 2009, published 2013)

Assays:
[1] = molecular target: T1, stearoyl-CoA desaturase (SCD1) (Mus musculus, UniProt P13516); assay: SCD inhibition assay using mouse liver microsomes (release of 3H2O from [9,10-3H]stearoyl-CoA); type: biochemical; conditions: 15 min incubation, 25° C., read-out: Microsomal IC50
T1 construct: Reactions are started by adding 50 μL of microsomes (1.25 mg/mL); from tissue; host or cells: liver microsomes of male ICR outbred mice on a high-carbohydrate, low-fat diet
T1 sequence (P13516 1-355): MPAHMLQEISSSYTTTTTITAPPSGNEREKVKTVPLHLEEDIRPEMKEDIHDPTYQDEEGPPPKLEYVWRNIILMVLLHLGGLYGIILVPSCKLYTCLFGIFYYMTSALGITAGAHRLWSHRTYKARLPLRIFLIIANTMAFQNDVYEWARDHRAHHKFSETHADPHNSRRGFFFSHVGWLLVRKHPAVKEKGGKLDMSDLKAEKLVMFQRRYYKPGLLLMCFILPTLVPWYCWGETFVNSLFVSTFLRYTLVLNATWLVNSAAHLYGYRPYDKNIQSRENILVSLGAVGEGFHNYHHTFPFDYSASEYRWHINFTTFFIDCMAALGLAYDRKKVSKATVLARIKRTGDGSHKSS
Experimental: Measuring Stearoyl-CoA Desaturase Inhibition Activity of a Test Compound Using Mouse Liver Microsomes
Livers are immediately rinsed with cold 0.9% NaCl solution, weighed and minced with scissors. All procedures are performed at 4° C. unless specified otherwise. Livers are homogenized in a solution (1/3 w/v) containing 0.25 M sucrose, 62 mM potassium phosphate buffer (pH 7.0), 0.15 M KCl, 15 mM N-acetyleysteine, 5 mM MgCl2, and 0.1 mM EDTA using 4 strokes of a Potter-Elvehjem tissue homogenizer. The homogenate is centrifuged at 10,400×g for 20 min to eliminate mitochondria and cellular debris. The supernatant is filtered through a 3-layer cheesecloth and centrifuged at 105,000×g for 60 min. The microsomal pellet is gently resuspended in the same homogenization solution with a small glass/teflon homogenizer and stored at ˜70° C. The absence of mitochondrial contamination is enzymatically assessed. The protein concentration is measured using bovine serum albumin as the standard.
Desaturase activity is measured as the release of ^3H2O from [9,10-^3H]stearoyl-CoA. Reactions per assay point conditions are as follows: 2 μL 1.5 mM stearoyl-CoA, 0.25 μL 1 mCi/mL ^3H stearoyl CoA, 10 μL 20 mM NADH, 36.75 μL 0.1 M PK buffer (K2HPO4/NaH2PO4, pH 7.2). The test compound or control solution is added in a 1 μL volume. […] The plates are mixed and after 15 min incubation on a heating block (25° C.), the reactions are stopped by the addition of 10 μL 60% PCA. An aliquot of 100 μL is then transferred to a filter plate pretreated with charcoal and the plate centrifuged at 4000 rpm for 1 minute. The flow through containing the ^3H2O released by the SCD1 desaturation reaction is added to scintillation fluid and the radioactivity measured in a Packard TopCount. The data is analysed to identify the IC50 for test compounds and reference compounds.
The activity was defined in terms of % SCD enzyme activity remaining at the desired concentration of the test compound or as the IC50 concentration.

| IC50 [1] | melting point | SMILES |
| --- | --- | --- |
| 65 nM | 262 to 263 °C | O=C(NCc1ccncc1)c1cc(-n2cnn(Cc3ccc(F)cc3)c2=O)n[nH]1 [Example 8.8, 3-(1-(4-fluorobenzyl)-5-oxo-1H-1,2,4-triazol-4(5H)-yl)-N-(pyridin-4-ylmethyl)-1H-pyrazole-5-carboxamide] |
| 8 nM | 272 to 274 °C | O=C(NCc1nccs1)c1cc(N2CCN(Cc3ccc(F)cc3)C2=O)n[nH]1 [Example 8.2, 3-(3-(4-fluorobenzyl)-2-oxoimidazolidin-1-yl)-N-(thiazol-2-ylmethyl)-1H-pyrazole-5-carboxamide] |
| 11 nM | – | O=C(NCc1ccccc1)c1cc(N2CCN(Cc3ccc(F)cc3)C2=O)n[nH]1 [Example 8.3, N-benzyl-3-(3-(4-fluorobenzyl)-2-oxoimidazolidin-1-yl)-1H-pyrazole-5-carboxamide] |
| 368 nM | 256 to 258 °C | NC(=O)c1cc(N2CCN(Cc3ccc(F)cc3)C2=O)n[nH]1 [Example 8.4, 3-(3-(4-fluorobenzyl)-2-oxoimidazolidin-1-yl)-1H-pyrazole-5-carboxamide] |
| 122 nM | 244 to 245 °C | Cn1cc(CNC(=O)c2cc(N3CCN(Cc4ccc(F)cc4)C3=O)n[nH]2)cn1 [Example 8.1, 3-(3-(4-fluorobenzyl)-2-oxoimidazolidin-1-yl)-N-((1-methyl-1H-pyrazol-4-yl)methyl)-1H-pyrazole-5-carboxamide] |
| 488 nM | > 270 °C | NC(=O)c1cc(-n2cnn(Cc3ccc(F)cc3)c2=O)n[nH]1 [Example 8.5, 3-(1-(4-fluorobenzyl)-5-oxo-1H-1,2,4-triazol-4(5H)-yl)-1H-pyrazole-5-carboxamide] |

Second part, the compound before the results:

| SMILES | IC50 [1] | melting point |
| --- | --- | --- |
| O=C(NCc1cocn1)c1cc(-n2cnn(Cc3ccc(F)cc3)c2=O)n[nH]1 [Example 8.6, 3-(1-(4-fluorobenzyl)-5-oxo-1H-1,2,4-triazol-4(5H)-yl)-N-(oxazol-4-ylmethyl)-1H-pyrazole-5-carboxamide] | 165 nM | 267 to 268 °C |
| O=C(NCc1ccccc1)c1cc(-n2cnn(Cc3ccc(F)cc3)c2=O)n[nH]1 [Example 2.1, N-benzyl-3-(1-(4-fluorobenzyl)-5-oxo-1H-1,2,4-triazol-4(5H)-yl)-1H-pyrazole-5-carboxamide] | 6 nM | – |
| Cc1cc(CNC(=O)c2cc(N3CCN(Cc4ccc(F)cc4)C3=O)n[nH]2)no1 [Example 5, 3-(3-(4-fluorobenzyl)-2-oxoimidazolidin-1-yl)-N-((5-methylisoxazol-3-yl)methyl)-1H-pyrazole-5-carboxamide] | 37 nM | 294 to 296 °C (dec.) |
| O=C(NCc1cccnc1)c1cc(-n2cnn(Cc3ccc(F)cc3)c2=O)n[nH]1 [Example 2, 3-(1-(4-fluorobenzyl)-5-oxo-1H-1,2,4-triazol-4(5H)-yl)-N-(pyridin-3-ylmethyl)-1H-pyrazole-3-carboxamide] | 7 nM | 235 to 236 °C |
| Cc1cc(CNC(=O)c2cc(N3CCN(Cc4ccc(F)cc4)C3=O)n[nH]2)n[nH]1 [Example 4, 3-(3-(4-fluorobenzyl)-2-oxoimidazolidin-1-yl)-N-((5-methyl-1H-pyrazol-3-yl)methyl)-1H-pyrazole-5-carboxamide] | 88 nM | 254 to 255 °C |
| O=C(NCc1ccccn1)c1cc(N2CCN(Cc3ccc(F)cc3)C2=O)n[nH]1 [Example 3, 3-(3-(4-fluorobenzyl)-2-oxoimidazolidin-1-yl)-N-(pyridin-2-ylmethyl)-1H-pyrazole-5-carboxamide] | 45 nM | 235 to 237 °C |
| Cc1cc(CNC(=O)c2cc(-n3cnn(Cc4ccc(F)cc4)c3=O)n[nH]2)no1 [Example 7, 3-(1-(4-fluorobenzyl)-5-oxo-1H-1,2,4-triazol-4(5H)-yl)-N-((5-methylisoxazol-3-yl)methyl)-1H-pyrazole-5-carboxamide] | 22 nM | 276 to 277 °C |
| O=C(NCc1ccccn1)c1cc(-n2cnn(Cc3ccc(F)cc3)c2=O)n[nH]1 [Example 8, 3-(1-(4-fluorobenzyl)-5-oxo-1H-1,2,4-triazol-4(5H)-yl)-N-(pyridin-2-ylmethyl)-1H-pyrazole-5-carboxamide] | 23 nM | 224 to 225 °C |
| O=C(NCc1cccnc1)c1cc(N2CCN(Cc3ccc(F)cc3)C2=O)n[nH]1 [Example 6, 3-(3-(4-fluorobenzyl)-2-oxoimidazolidin-1-yl)-N-(pyridin-3-ylmethyl)-1H-pyrazole-5-carboxamide] | 3 nM | 251 to 253 °C |
| O=C(NCc1ccc(F)c(F)c1)c1cc(-n2cnn(Cc3ccc(F)cc3)c2=O)n[nH]1 [Example 1, N-(3,4-difluorobenzyl)-3-(1-(4-fluorobenzyl)-5-oxo-1H-1,2,4-triazol-4(5H)-yl)-1H-pyrazole-5-carboxamide] | 8 nM | 208 to 209 °C |
| CNC(=O)c1cc(-n2cnn(Cc3ccc(F)cc3)c2=O)n[nH]1 [Example 2.2, 3-(1-(4-Fluorobenzyl)-5-oxo-1H-1,2,4-triazol-4(5H)-yl)-N-methyl-1H-pyrazole-5-carboxamide] | 385 nM | 268 to 269 °C |
